Measured values published in patent publication US10301352B2, “Peptidomimetics with antiangiogenic activity” (UNIWERSYTET WARSZAWSKI, priority 2013, dated 2019).
Non-standard residues stand in square brackets, D forms with d. Residues, ends and D or L forms follow the SMILES beside them. No end group written: not given here. ξ: configuration not given here. hArg = N=C(N)NCCCC[C@H](N)C(=O)O; Dab = NCC[C@H](N)C(=O)O; Dap = NC[C@H](N)C(=O)O; ξP = O=C(O)C1CCCN1

Assays:
NRP-1 = target: T1, NRP-1 (Rattus norvegicus, UniProt Q9QWJ9); assay: VEGF165 displacement assay (inhibition of VEGF165 to NRP-1 binding); conditions: biotinylated VEGF165 1 nM; for inhibition at 0.03 µM: compound 0.03 μM; for inhibition at 0.1 µM: compound 0.1 μM; for inhibition at 0.3 µM: compound 0.3 μM; for inhibition at 1 µM: compound 1 μM
T1 construct: purchased R&D Systems
T1 sequence (Q9QWJ9 with tags, fused parts or gaps limits assumed): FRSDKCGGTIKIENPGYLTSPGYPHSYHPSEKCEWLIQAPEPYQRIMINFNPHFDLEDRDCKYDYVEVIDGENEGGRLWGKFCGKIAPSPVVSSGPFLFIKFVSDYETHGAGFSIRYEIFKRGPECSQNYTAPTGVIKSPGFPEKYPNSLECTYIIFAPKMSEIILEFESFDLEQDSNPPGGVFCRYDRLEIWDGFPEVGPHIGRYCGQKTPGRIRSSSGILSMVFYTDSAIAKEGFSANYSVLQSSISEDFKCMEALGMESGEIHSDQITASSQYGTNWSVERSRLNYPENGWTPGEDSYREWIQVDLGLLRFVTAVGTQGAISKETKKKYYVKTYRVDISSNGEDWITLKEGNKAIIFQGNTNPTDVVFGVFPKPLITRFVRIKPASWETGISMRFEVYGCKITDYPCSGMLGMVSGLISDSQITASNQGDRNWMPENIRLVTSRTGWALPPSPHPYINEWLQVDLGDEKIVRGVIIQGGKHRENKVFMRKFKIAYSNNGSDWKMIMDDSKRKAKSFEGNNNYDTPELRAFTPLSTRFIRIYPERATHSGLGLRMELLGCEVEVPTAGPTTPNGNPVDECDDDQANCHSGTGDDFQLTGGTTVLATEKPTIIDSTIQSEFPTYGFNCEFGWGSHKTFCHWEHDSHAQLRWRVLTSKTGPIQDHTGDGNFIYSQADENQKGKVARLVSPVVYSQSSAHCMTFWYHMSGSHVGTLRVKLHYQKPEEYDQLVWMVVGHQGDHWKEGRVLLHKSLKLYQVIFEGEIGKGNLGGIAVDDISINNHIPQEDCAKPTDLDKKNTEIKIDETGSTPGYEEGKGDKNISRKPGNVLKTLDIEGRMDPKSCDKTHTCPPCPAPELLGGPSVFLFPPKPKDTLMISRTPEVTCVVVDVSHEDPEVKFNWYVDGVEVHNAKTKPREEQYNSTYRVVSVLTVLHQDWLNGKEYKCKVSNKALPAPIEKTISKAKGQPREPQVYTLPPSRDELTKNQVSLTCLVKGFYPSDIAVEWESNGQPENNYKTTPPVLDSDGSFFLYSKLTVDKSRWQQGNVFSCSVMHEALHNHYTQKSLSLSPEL
Protocol: Antiangiogenic properties were evaluated in vitro by measuring the inhibition of VEGF165 to NRP-1 binding. This test makes it possible to evaluate the % inhibition by the evaluated compound at a particular concentration.
The evaluation of the inhibitory effect of peptidomimetics were performed using an enzymatic method denoting the spectrophotometric displacement of the VEGF165 ligand from a bond with the specific receptor Neuropilin-1 by the evaluated compound. The studies were performed using polystyrene 96-well plates (Maxisorb, Nunc.).
To evaluate the biological inhibitory activity of selected molecules, the surfaces of flat bottom polystyrene wells of 96-wells plates (Maxisorb, Nunc,) was treated with 100 ul of 2 ug/ml anti-Fc IgG (Sigma-Aldrich, Saint Quentin Fallavier, France) in phosphate buffer saline (PBS, Sigma) overnight at 4° C. After washing and saturation of non-specific interactions with bovine serum albumin (BSA, Sigma), purified recombinant rat NRP1-Fc (20 ng/well, R&D Systems, Abingdon, UK) in 50 μl PBS-BSA 0.1%-tween-80 0.005% (PBT), […] VEGF165 (final concentration 1 nM, R&D Systems) diluted in PBT containing 2 μg/ml of heparin (Sigma) were successively added to a final volume of 150 μl. After an overnight incubation at 4° C., the wells were washed with PBT and treated with streptavidin-HRP polymer (Sigma) followed by washing and addition of ABTS substrate (Sigma). The DO measures were performed at 415 nm in reference to 470 nm after 15 minutes-2 h of reaction. […] In the control wells, the tested compound was absent but the respective concentration of DMSO was maintained. The heptapeptide A7R (ATWLPPR) was routinely used as a positive control for each plate.

[1] = In vitro peptidomimetic stability in human plasma (LC/MS); type: in vitro ADME; conditions: 37° C.; for half-life at 0.35 μmol/mL: human plasma from healthy donors, TFA salt, read-out: half-life time; for main enzymatic cleavage / degradation products: human plasma
Protocol: The stability of two peptidomimetics: Lys(hArg)-Dap-Pro-Arg and Lys(hArg-Pro-Dab-Arg were tested in plasma samples obtained from healthy donors. Peptidomimetics stock solutions were prepared by dissolving the TFA salt of proper peptidomimetic in water to obtain a final peptidomimetic concentration of 0.7 μmol/mL. In a Eppendorf tube, samples of 100 μL of human plasma were temperature-equilibrated at 37° C. for 15 minutes before adding 100 μL of peptidomimetic stock solution. Three tubes allowed the analysis for each time point. The initial time was recorded and at known time intervals (every 10 minutes from 0 sec to 3 h), 400 μL of solution of TCA in 99.8% ethanol (CTCA=0.2%) was added to the reaction solution for precipitation of the serum proteins. The cloudy reaction sample was shaken and then spun at 2000 g to pellet the precipitated serum proteins. The reaction supernatant was then analyzed by LC/MS analysis (using a RP-HPLC-ESI-MS system).

Row | inhibition at 0.03 µM (NRP-1) [%] | inhibition at 0.1 µM (NRP-1) [%] | inhibition at 0.3 µM (NRP-1) [%] | inhibition at 1 µM (NRP-1) [%] | inhibition at 3 µM (NRP-1; compound 3 μM) [%] | inhibition at 10 µM (NRP-1; compound 10 μM) [%] | inhibition at 30 µM (NRP-1; compound 30 μM) [%] | half-life at 0.35 μmol/mL [1] [h] | main enzymatic cleavage / degradation products [1] | Compound | % inhibition of VEGF165 to NRP-1 binding (NRP-1; compound 3 μM) [%] | % inhibition of VEGF165 to NRP-1 binding (NRP-1; compound 10 μM) [%] | % inhibition of VEGF165 to NRP-1 binding (NRP-1; compound 30 μM) [%]
1 | 13.7 | 35.4 | 62.2 | 82.6 | 93.6 | 98.3 | 100 | 0.667 | to Lys(hArg)-Pro and Dab-Arg | N=C(N)NCCCC[C@H](N)C(=O)NCCCC[C@H](N)C(=O)N1CCCC1C(=O)N[C@@H](CCN)C(=O)N[C@@H](CCCNC(=N)N)C(=O)O (stereo partly drawn) [compound 2, Lys(hArg)-Pro-Dab-Arg] (H-K(hArg)[ξP][Dab]R-OH) |  |  | 
2 | 11.6 | 33 | 59.4 | 82 | 93.4 | 96.8 | 99.7 | ~2.33 | between the first and second residue | N=C(N)NCCCC[C@H](N)C(=O)NCCCC[C@H](N)C(=O)N[C@@H](CN)C(=O)N1CCC[C@H]1C(=O)N[C@@H](CCCNC(=N)N)C(=O)O [compound 3, Lys(hArg)-Dap-Pro-Arg] (H-K(hArg)[Dap]PR-OH) |  |  | 
3 |  | 21.6 | 47.8 | 82.4 | 91.4 | 98.5 | 100 |  |  | N=C(N)NCCCC[C@H](N)C(=O)NCCCC[C@H](N)C(=O)N[C@@H](CCN)C(=O)N1CCC[C@H]1C(=O)N[C@@H](CCCNC(=N)N)C(=O)O [compound 4, Lys(hArg)-Dab-Pro-Arg] (H-K(hArg)[Dab]PR-OH) |  |  | 
4 |  |  |  |  |  |  |  |  |  | ATWLPPR [A7R, reference compound] | 61.2 | 76.9 | 85.5
